Assay [1] concerns Staphylococcus aureus. The assay can be described thus: Antibacterial activity against trimethoprim sensitive Staphylococcus aureus assessed as inhibition of bacterial growth. It counts as functional.
The test system of assay [2] is Enterococcus faecium. The assay can be described thus: Antibacterial activity against trimethoprim sensitive Enterococcus faecium assessed as inhibition of bacterial growth. It counts as functional.
Assay [3] concerns Enterococcus faecium. The assay can be described thus: Antibacterial activity against trimethoprim resistant Enterococcus faecium assessed as inhibition of bacterial growth. It counts as functional.
Assay [4] has as its system Acinetobacter baumannii. Description: Antibacterial activity against trimethoprim sensitive Acinetobacter baumannii assessed as inhibition of bacterial growth. It counts as functional.
Assay [5] relates to Staphylococcus aureus. The assay can be described thus: Antibacterial activity against Staphylococcus aureus. It counts as functional, organism-based.
Assay [6] concerns Enterococcus faecium. The assay can be described thus: Antibacterial activity against Enterococcus faecium. It counts as functional, organism-based.
Assay [7] deals with Staphylococcus aureus. Description: Antibacterial activity against trimethoprim resistant Staphylococcus aureus assessed as inhibition of bacterial growth. It counts as functional.
Assay [8] has as its system Acinetobacter baumannii. Description: Antibacterial activity against trimethoprim resistant Acinetobacter baumannii assessed as inhibition of bacterial growth. It counts as functional.

Converted amounts (≈) assume the structure as drawn. The source made the active and inactive calls. No cut-off for these calls is given here.

By MIC is commonly meant the lowest concentration that inhibits growth of the organism. Consider `COc1cc(Cc2cnc(N)nc2N)cc(OC)c1OC(=O)C12CCC(C(=O)Oc3c(OC)cc(Cc4cnc(N)nc4N)cc3OC)(CC1)CC2`, for which the MIC was > 100 µM in the assay with Staphylococcus aureus [1], 3.12 µM (≈ 2.23 µg/mL) in the assay with Enterococcus faecium [2], > 100 µM in the assay on Enterococcus faecium [3] and > 100 µM in the assay on Acinetobacter baumannii [4].

On to `CC(C)(C)[Si](C)(C)OC[C@H]1CN(c2ccc(O)c(F)c2)C(=O)O1`, for which the outcome with Staphylococcus aureus [5] and with Enterococcus faecium [6] was inactive.

`COc1cc(Cc2cnc(N)nc2N)cc(OC)c1OC` [TRIMETHOPRIM]: the MIC is 6.25 µM (≈ 1.81 µg/mL) with Staphylococcus aureus [1]; 12.5 µM (≈ 3.63 µg/mL) in the assay on Staphylococcus aureus [7]; 0.78 µM (≈ 0.226 µg/mL) with Enterococcus faecium [2]; 100 µM (≈ 29 µg/mL) in the assay on Enterococcus faecium [3]; 6.25 µM (≈ 1.81 µg/mL) in the assay with Acinetobacter baumannii [4]; > 400 µM in the assay on Acinetobacter baumannii [8].

With `COc1cc(Cc2cnc(N)nc2N)cc(OC)c1OC(=O)C12CC(C(=O)Oc3c(OC)cc(Cc4cnc(N)nc4N)cc3OC)(C1)C2`, the MIC in the assay on Staphylococcus aureus [1] is 25 µM (≈ 16.8 µg/mL); in the assay with Staphylococcus aureus [7] it was > 100 µM; in the assay with Enterococcus faecium [2], 1.56 µM (≈ 1.05 µg/mL); in the assay on Enterococcus faecium [3], > 50 µM; with Acinetobacter baumannii [4], > 100 µM.

Take `COc1cc(Cc2cnc(N)nc2N)cc(OC)c1OC(=O)C12CC3CC(C1)CC(C(=O)Oc1c(OC)cc(Cc4cnc(N)nc4N)cc1OC)(C3)C2`: the minimal inhibitory concentration (MIC) in the assay on Staphylococcus aureus [1] is 12.5 µM (≈ 9.26 µg/mL); with Staphylococcus aureus [7], > 25 µM; with Enterococcus faecium [2] it was 6.25 µM (≈ 4.63 µg/mL); in the assay with Enterococcus faecium [3] it was 50 µM (≈ 37 µg/mL); in the assay with Acinetobacter baumannii [4], > 100 µM.

In the case of `COc1cc(Cc2cnc(N)nc2N)cc(OC)c1O` [4-HYDROXYTRIMETHOPRIM], the minimum inhibitory concentration (MIC) in the assay with Staphylococcus aureus [1] is 12.5 µM (≈ 3.45 µg/mL); with Staphylococcus aureus [7] it was > 25 µM; in the assay on Enterococcus faecium [2], 3.12 µM (≈ 0.863 µg/mL); in the assay with Enterococcus faecium [3] it was 60 µM (≈ 16.6 µg/mL); with Acinetobacter baumannii [4] it was > 100 µM.

The record behind these values is ChEMBL document CHEMBL5236604, “Cage hydrocarbons as linkers in dimeric drug design: Case studies with trimethoprim and tedizolid” (2023).
